Results taken from US20180244629A1, “Compounds And Compositions For The Treatment Of Cancer” (The Broad Institute, Inc., priority 2013, published 2018).
Like-named read-outs stand apart in the source and are kept apart here.

How the values were obtained:
[1] = tested on: A549 cells; test: A549 Cytotoxicity Assay (Cell Titer Glo viability); type: cell-based
Protocol: (§1) A549 Cytotoxicity Assay Protocol. Day 0: A549 cells (ATCC, A549 CCL-185) are grown to 95% confluence in RPMI, 10% FBS/Pen/Strep/L-Glutamine. Day 1: Plate cells (1000 per well) in 40 μl culturing media using Corning 384-well plates (3570), incubate in standard TC conditions (5% CO2, 95% humidity, 37° C.) for 24 h. Day 2: Dilute each concentration of a half-log serial dilution of compound (1 mM-100 nM) 1:200 in culturing media and add […] (50 μl total volume) of that dilution to designated wells (8 replicates per concentration). The final dilution will be 1000×([…]). Day 4: Remove plate from incubator to cool for 20 minutes to room temperature. Add 40 μl of a 25% Promega Cell Titer Glo solution (diluted 1:3 with room temperature PBS) with Thermo combi or multichannel and incubate for 10 min. Read on Perkin-Elmer EnVision with US LUM settings for 0.1 second per well.
A549 Assay Protocol. Day 0: A549 cells (ATCC) are grown in a Triple flask (NUNC) to ˜95% confluence (TrypLE Phenol Red free) and resuspended for dispensing at 25,000 cells/mL of DMEM, 10% FBS/Pen/Strep/L-Glutamine (using the TAP Compact SelecT automated cell culture system). Day 1: Plate cells at 1000 per well in 40 uL media (DMEM/10% FBS/Pen/Strep/L-Glutamine) using Corning 8867BC 384 well plates; incubate in standard TC conditions (5% CO2; 95% humidity, 37° C.) for 24 hours (Compact SelecT). Day 2: Add 100 nL compound per well at dose into 40 uL assay volume using a pin tool (CyBi Well). Pin 100 nL cytotoxic compounds, mitoxantrone (CID 4212) to positive control wells to a final concentration of 10 μM (100 nL 4 mM DMSO stock). Incubate for […] at 37° C. in Liconic incubator, 95% humidity 5% CO2. Day 4: Remove plate from incubator, cool for 15 minutes to room temperature; add 20 μL 50% Promega CellTiterGlo (diluted 1:1 with PBS, pH 7.4) with Thermo Combi. Incubate at room temperature for 5 minutes. Read plates on Perkin-Elmer EnVision with standard luminescence settings for 0.1 sec per well.
(§2) Compounds as shown were tested against various cells lines in vitro according to the methods described herein. Cells are plated in 384-well format in a total volume of 40 μl. Indicated compound concentrations were added 24 hrs after plating the cells. After 48 hrs cell viability was determined using Cell Titer Glo® Luminescent Cell Viability Assay.
as §2, with “Known PDE3 inhibitors” for “Compounds”, “shown below” for “shown”

[2] = tested on: PDE3; conditions: reference value; read-out: PDE3 activity (ref); cited from earlier work
[3] = tested on: HeLa cells; test: HeLa Cytotoxicity Assay (Cell Titer Glo viability); type: cell-based
Protocol: HeLa Cytotoxicity Assay Protocol: Day 0: HeLa cells (ATCC, HeLa CCL-2) are grown to 95% confluence in DMEM, 10% FBS/Pen/Strep/L-Glutamine. Day 1: Plate cells (1000 per well) in 40 μl culturing media using Corning 384-well plates (3570), incubate in standard TC conditions (5% CO2, 95% humidity, 37 degrees C.) for 24 hours. Day 2: Dilute each concentration of a half-log serial dilution of compound (1 mM-100 nM) 1:200 in culturing media and add 10 μl (50 μl total volume) of that dilution to designated wells (8 replicates per concentration). The final dilution will be 1000×(1 μM-100 pM). Day 4: Remove plate from incubator to cool for 20 minutes to room temperature. Add 40 μl of a 25% Promega Cell Titer Glo solution (diluted 1:3 with room temperature PBS) with Thermo combi or multichannel and incubate for 10 minutes. Read on Perkin-Elmer EnVision with US LUM settings for 0.1 second per well.
as §2
as §2, with “Known PDE3 inhibitors” for “Compounds”, “shown below” for “shown”

[4] = tested on: H2122 cells; test: H2122 Assay (Cell Titer Glo viability); type: cell-based; conditions: 48 hrs, Cell Titer Glo, read-out: EC50 H2122
Protocol: Selective toxicity in cell line panel. H2122 Assay Protocol Day 0: H2122 cells (ATCC, H2122 CCL-5985) are grown to 95% confluence in RPMI, 10% FBS/Pen/Strep/L-Glutamine. Day 1: Plate cells (750 per well) in 40 μl culturing media using Corning 384-well plates (3570), incubate in standard TC conditions (5% CO2, 95% humidity, 37 degrees C.) for 24 h. Day 2: Dilute each concentration of a half-log serial dilution of compound (1 mM-100 nM) 1:200 in culturing media and add 10 μl (50 μl total volume) of that dilution to designated wells (8 replicates per concentration). The final dilution will be 1000×([…]). Day 4: Remove plate from incubator to cool for 20 minutes to room temperature. Add 40 μl of a 25% Promega Cell Titer Glo solution (diluted 1:3 with room temperature PBS) with Thermo combi or multichannel and incubate for 10 minutes. Read on Perkin-Elmer EnVision with US LUM settings for 0.1 second per well.
as §2

[5] = tested on: HEL; test: HEL cell line viability (Cell Titer Glo); type: cell-based
Protocol: as §2

[6] = tested on: COLO741 cells; test: COLO741 Assay (Cell Titer Glo viability); type: cell-based; conditions: 48 hrs, Cell Titer Glo, read-out: EC50 COLO741
Protocol: as §1, with “C0L0741” for “A549 Cytotoxicity”, “C0L0741” for “A549”, “(ECACC, C0L0741 93052621)” for “(ATCC, A549 CCL-185)”, “(1500” for “(1000”, “minutes.” for “min.”
as §2

[7] = tested on: HeLa cells; test: PARP cleavage assay (immunoblot); type: cell-based
Protocol: The mechanism of cell death was determined after contacting the cells with the compound in Example 1. […] Cells were treated for 24 h with the indicated concentrations of each agent, lysed, and immunoblotted with anti-PARP or anti-actin.

[8] = Homo sapiens, A549, known PDE3 inhibitors, Mean (n = 3), read-out: Potency (EC50 nM) A549
[9] = Homo sapiens, HeLa, known PDE3 inhibitors, Mean (n = 3), read-out: Potency (EC50 nM) HeLa
[10] = 48 hrs, Cell Titer Glo, read-out: EC50 A549
[11] = Homo sapiens, HeLa, 48 h, Cell Titer Glo, read-out: EC50 HeLa
[12] = Homo sapiens, A549, 48 hrs, Cell Titer Glo, read-out: EC50 A549

In the case of `Cc1[nH]c(=O)c(C#N)cc1-c1ccncc1` [Millrinone, reference compound], the EC50 [1, 8] is listed as > 10000 nM, the IC50 [2] is listed as 56 nM and the EC50 [3, 9] is listed as > 10000 nM.

For `CC(=O)Nc1ccc(C2=NNC(=O)C[C@H]2C)cc1` [OR-1896, reference compound], the EC50 ([1]; known PDE3 inhibitors, Mean (n = 3), read-out: Potency (EC50 nM) A549) is given as > 10000 nM, the IC50 [2] is given as 94 nM and the EC50 [3, 9] is given as > 10000 nM.

In the case of `CN/C(=N\c1ccc(C2=NNC(=O)CC2C)cc1)NC#N` (stereo not shown) [Siguazodan, reference compound], the EC50 [1, 8] is given as > 10000 nM, the IC50 [2] is given as 117 nM and the EC50 [3, 9] is given as > 10000 nM.

In the case of `COc1cc2c(cc1OC)-c1c/c(=N\c3c(C)cc(C)cc3C)n(C)c(=O)n1CC2` [Trequinsin, reference compound], the EC50 [1, 8] is given as > 10000 nM, the IC50 [2] is given as 0.25 nM and the EC50 [3, 9] is given as > 10000 nM.

For `COc1cc(-c2ccc(=O)[nH]n2)ccc1OC(F)F` [Zardaverine, reference compound], the EC50 [1, 8] is listed as > 10000 nM, the IC50 [2] is listed as 2500 nM and the EC50 [3, 9] is listed as 56 nM.

With `C[C@@H]1CC(=O)NN=C1c1ccc(N2CCOCC2)cc1` [drawing 138] the EC50 ([4]; Homo sapiens, NCI-H2122, 48 h) was 11.8 nM, the EC50 [1, 10] was > 10000 nM and the EC50 [3, 11] was 10.3 to 12.1 nM. The EC50 ([5]; 48 hrs) was 25.7 to 58.4 nM and the EC50 [6] was 14.5 to 18.9 nM.

With `CCN(CC)c1ccc(C2=NNC(=O)C[C@H]2C)cc1[N+](=O)[O-]` [drawing 141] the EC50 [4] was 3.62 nM, the EC50 [1, 12] was > 10000 nM and the EC50 [3, 11] was 2.63 nM. It also gave an EC50 ([5]; Homo sapiens, HEL, 48 h) of 13.5 nM and an EC50 ([6]; Homo sapiens, COLO-741, 48 h) of 3.97 nM.

With `CCNc1ccc(C2=NNC(=O)C[C@H]2C)cc1[N+](=O)[O-]` [drawing 142] the EC50 ([4]; Homo sapiens, NCI-H2122, 48 h) was 0.8 nM, the EC50 [1, 12] was > 10000 nM and the EC50 [3, 11] was 0.461 nM. The EC50 ([5]; Homo sapiens, HEL, 48 h) was 3.98 nM and the EC50 ([6]; Homo sapiens, COLO-741, 48 h) was 0.76 nM.

With `CCN(CC)c1ccc(C2=NNC(=O)C[C@H]2C)cc1[N+](=O)[O-]` [drawing 145] the EC50 [4] was 7.4 nM, the EC50 [1, 10] was > 10000 nM and the EC50 ([3]; 48 hrs, Cell Titer Glo, read-out: EC50 HeLa) was 4.05 nM. For the same compound, the EC50 ([5]; 48 hrs) was 11.3 to 16.2 nM and the EC50 [6] was 3.6 to 4.4 nM.

For `C[C@@H]1CC(=O)NN=C1c1ccc(N2CCOCC2)cc1` [drawing 151], the EC50 [1, 12] was > 10000 nM, the EC50 ([5]; Homo sapiens, HEL, 48 h) was 38.7 nM and the EC50 ([6]; Homo sapiens, COLO-741, 48 h) was 16.5 nM.

With `OO` [hydrogen peroxide] the “mechanism of cell death (PARP cleavage)” value ([7]; Hela cells treated for 24 h, anti-PARP immunoblot, FIG. 3) was “caused necrosis but not apoptosis”.

For `CN[C@@H]1C[C@H]2O[C@@](C)([C@@H]1OC)n1c3ccccc3c3c4c(c5c6ccccc6n2c5c31)C(=O)NC4` [staurosporine], the cell death ([7]; Hela cells, 10 μM, 24 h) was “almost complete cell death”.
